According to patent publication US20160257997A1, “METHODS FOR WHOLE-CELL ANALYSIS OF GRAM-POSITIVE BACTERIA” (AdvanDx, Inc., priority 2009, published 2016):
Values after ≈ are worked out from the molar mass of the structure shown. Where two headings read alike, the source gives them in different places.

Columns and labels:
S. aureus (MRSA) = assay: cefoxitin Etest susceptibility testing (MIC), MRSA; type: cell-based, Staphylococcus aureus
S. aureus (MSSA) = assay: cefoxitin Etest susceptibility testing (MIC), MSSA; type: cell-based, Staphylococcus aureus
MR-CNS = assay: cefoxitin Etest susceptibility testing (MIC), MR-CNS; type: cell-based, coagulase-negative staphylococci
MS-CNS = assay: cefoxitin Etest susceptibility testing (MIC), MS-CNS; type: cell-based, coagulase-negative staphylococci

## CO[C@@]1(NC(=O)Cc2cccs2)C(=O)N2C(C(=O)O)=C(COC(N)=O)CS[C@@H]21 [cefoxitin]
S. aureus (MRSA); Staphylococcus aureus, ATCC 33591 / MRSA, cefoxitin Etest, Reference (ATCC 33591), SCCmec type III, read-out: MIC
  MIC: ≥ 256 µg/mL
S. aureus (MRSA); Staphylococcus aureus, ATCC 33591 / MRSA, cefoxitin, strain 2, MRSA ATCC 33591, SCCmec III, read-out: MIC Etest
  MIC: ≥ 256 µg/mL
S. aureus (MRSA); Staphylococcus aureus, ATCC 43300 / MRSA, cefoxitin Etest, Reference (ATCC 43300), SCCmec type II, read-out: MIC
  MIC: 128 µg/mL (≈ 299 µM)
S. aureus (MRSA); Staphylococcus aureus, ATCC 43300 / MRSA, cefoxitin, strain 39, MRSA ATCC 43300, SCCmec II, read-out: MIC Etest
  MIC: 128 µg/mL (≈ 299 µM)
S. aureus (MRSA); Staphylococcus aureus, MRSA / NCTC 10422, cefoxitin Etest, Reference (NCTC10422), SCCmec type Ib, read-out: MIC
  MIC: ≥ 256 µg/mL
S. aureus (MRSA); Staphylococcus aureus, MRSA / USA300, cefoxitin Etest, Reference (USA300), SCCmec type IV, read-out: MIC
  MIC: 48 µg/mL (≈ 112 µM)
S. aureus (MRSA); Staphylococcus aureus, MRSA / USA300, cefoxitin, strain 886, MRSA USA300, SCCmec IV, read-out: MIC Etest
  MIC: 48 µg/mL (≈ 112 µM)
S. aureus (MRSA); Staphylococcus aureus, MRSA / USA500, cefoxitin Etest, Reference (USA500), SCCmec type IV, read-out: MIC
  MIC: 48 µg/mL (≈ 112 µM)
S. aureus (MRSA); Staphylococcus aureus, MRSA, cefoxitin Etest, Reference (Clinical COL), SCCmec type I, read-out: MIC
  MIC: ≥ 256 µg/mL
S. aureus (MRSA); Staphylococcus aureus, MRSA, cefoxitin Etest, Reference (Clinical EU), SCCmec type Ia, read-out: MIC
  MIC: ≥ 256 µg/mL
S. aureus (MRSA); Staphylococcus aureus, MRSA, cefoxitin Etest, Reference (DK, SSI), SCCmec type IIIa, read-out: MIC
  MIC: ≥ 256 µg/mL
S. aureus (MRSA); Staphylococcus aureus, MRSA, cefoxitin Etest, Reference (DK, SSI), SCCmec type V, read-out: MIC
  MIC: 12 µg/mL (≈ 28.1 µM)
S. aureus (MRSA); Staphylococcus aureus, MRSA, cefoxitin, strain 9, MRSA EU, SCCmec I, read-out: MIC Etest
  MIC: ≥ 256 µg/mL
S. aureus (MRSA); Staphylococcus aureus, MRSA, cefoxitin, strain 11, MRSA EU, SCCmec II, read-out: MIC Etest
  MIC: ≥ 256 µg/mL
S. aureus (MRSA); Staphylococcus aureus, MRSA, cefoxitin, strain 13, MRSA, SCCmec IIIa, read-out: MIC Etest
  MIC: ≥ 256 µg/mL
S. aureus (MRSA); Staphylococcus aureus, MRSA, cefoxitin, strain 306, MRSA DK, SCCmec V, read-out: MIC Etest
  MIC: 12 µg/mL (≈ 28.1 µM)
S. aureus (MRSA); Staphylococcus aureus, MRSA, cefoxitin, strain 320, MRSA clinical DK, SCCmec IV, read-out: MIC Etest
  MIC: ≥ 256 µg/mL
S. aureus (MRSA); Staphylococcus aureus, MRSA, cefoxitin, strain 1468, MRSA COL, SCCmec I, read-out: MIC Etest
  MIC: ≥ 256 µg/mL
S. aureus (MRSA); cefoxitin Etest, strain 2, MRSA, Reference (ATCC 33591), type III
  MIC: ≧256
S. aureus (MRSA); cefoxitin Etest, strain 9, MRSA, Reference EU, type I
  MIC: ≧256
S. aureus (MRSA); cefoxitin Etest, strain 10, MRSA, Reference EU, type Ia
  MIC: ≧256
S. aureus (MRSA); cefoxitin Etest, strain 11, MRSA, Reference EU, type II
  MIC: ≧256
S. aureus (MRSA); cefoxitin Etest, strain 12, MRSA, Reference EU, type III
  MIC: ≧256
S. aureus (MRSA); cefoxitin Etest, strain 13, MRSA, Reference EU, type IIIa
  MIC: ≧256
S. aureus (MRSA); cefoxitin Etest, strain 15, MRSA, Clinical DK, type IV/ST80
  MIC: 48 µg/mL (≈ 112 µM)
S. aureus (MRSA); cefoxitin Etest, strain 39, MRSA, Reference (ATCC 43300), type II (EVIGENE)
  MIC: 128 µg/mL (≈ 299 µM)
S. aureus (MRSA); cefoxitin Etest, strain 295, MRSA, Reference DK, type IA
  MIC: ≧256
S. aureus (MRSA); cefoxitin Etest, strain 297, MRSA, Reference DK, type IA, EVIGENE IV
  MIC: 48 µg/mL (≈ 112 µM)
S. aureus (MRSA); cefoxitin Etest, strain 298, MRSA, Reference DK, type II
  MIC: ≧256
S. aureus (MRSA); cefoxitin Etest, strain 299, MRSA, Reference DK, type II
  MIC: ≧256
S. aureus (MRSA); cefoxitin Etest, strain 300, MRSA, Reference DK, type II
  MIC: ≧256
S. aureus (MRSA); cefoxitin Etest, strain 302, MRSA, Reference DK, type IIIA
  MIC: ≧256
S. aureus (MRSA); cefoxitin Etest, strain 303, MRSA, Reference DK, type III
  MIC: ≧256
S. aureus (MRSA); cefoxitin Etest, strain 304, MRSA, Reference DK, type IV
  MIC: 48 µg/mL (≈ 112 µM)
S. aureus (MRSA); cefoxitin Etest, strain 305, MRSA, Reference DK, type III
  MIC: ≧256
S. aureus (MRSA); cefoxitin Etest, strain 306, MRSA, Reference DK, type V
  MIC: 12 µg/mL (≈ 28.1 µM)
S. aureus (MRSA); cefoxitin Etest, strain 307, MRSA, Reference DK, type IV
  MIC: 48 µg/mL (≈ 112 µM)
S. aureus (MRSA); cefoxitin Etest, strain 320, MRSA, Clinical DK, type IV (EVIGENE)
  MIC: ≧256
S. aureus (MRSA); cefoxitin Etest, strain 321, MRSA, Clinical DK, type V (EVIGENE)
  MIC: 96 µg/mL (≈ 225 µM)
S. aureus (MRSA); cefoxitin Etest, strain 460, MRSA, Reference, Tokyo, type V
  MIC: 12 µg/mL (≈ 28.1 µM)
S. aureus (MRSA); cefoxitin Etest, strain 463, MRSA, Reference (NCTC10422), type Ib
  MIC: ≧256
S. aureus (MRSA); cefoxitin Etest, strain 557, MRSA, Reference (USA300), type IV
  MIC: 64 µg/mL (≈ 150 µM)
S. aureus (MRSA); cefoxitin Etest, strain 559, MRSA, Reference (USA300), type IV
  MIC: ≧256
S. aureus (MRSA); cefoxitin Etest, strain 560, MRSA, Reference (USA500), type IV
  MIC: 48 µg/mL (≈ 112 µM)
S. aureus (MRSA); cefoxitin Etest, strain 797, MRSA, Clinical DK, type II (EVIGENE)
  MIC: 64 µg/mL (≈ 150 µM)
S. aureus (MRSA); cefoxitin Etest, strain 801, MRSA, Clinical DK, type II (EVIGENE)
  MIC: ≧256
S. aureus (MRSA); cefoxitin Etest, strain 812, MRSA, Clinical DK, type II (EVIGENE)
  MIC: ≧256
S. aureus (MRSA); cefoxitin Etest, strain 886, MRSA, Reference (FPR3757, USA300), type IV
  MIC: 48 µg/mL (≈ 112 µM)
S. aureus (MRSA); cefoxitin Etest, strain 920, MRSA, Clinical DK, type I (EVIGENE)
  MIC: ≧256
S. aureus (MRSA); cefoxitin Etest, strain 924, MRSA, Clinical DK, type IV (EVIGENE)
  MIC: 96 µg/mL (≈ 225 µM)
S. aureus (MRSA); cefoxitin Etest, strain 926, MRSA, Clinical DK, type IV (EVIGENE)
  MIC: 48 µg/mL (≈ 112 µM)
S. aureus (MRSA); cefoxitin Etest, strain 927, MRSA, Clinical DK, type IV
  MIC: 24 µg/mL (≈ 56.1 µM)
S. aureus (MRSA); cefoxitin Etest, strain 931, MRSA, Clinical DK, type III (EVIGENE)
  MIC: ≧256
S. aureus (MRSA); cefoxitin Etest, strain 1184, MRSA, Reference (ATCC BAA-1708), type II (EVIGENE)
  MIC: 96 µg/mL (≈ 225 µM)
S. aureus (MRSA); cefoxitin Etest, strain 1468, MRSA, Reference (COL), type I
  MIC: ≧256
S. aureus (MSSA); Staphylococcus aureus, ATCC 11632 / MSSA, cefoxitin Etest, MSSA Reference (ATCC 11632), read-out: MIC
  MIC: 3 µg/mL (≈ 7.02 µM)
S. aureus (MSSA); Staphylococcus aureus, ATCC 25923 / MSSA, cefoxitin Etest, MSSA Reference (ATCC 25923), read-out: MIC
  MIC: 3 µg/mL (≈ 7.02 µM)
S. aureus (MSSA); Staphylococcus aureus, ATCC 25923 / MSSA, cefoxitin, strain 155, MSSA ATCC 25923, read-out: MIC Etest
  MIC: 3 µg/mL (≈ 7.02 µM)
S. aureus (MSSA); Staphylococcus aureus, ATCC 29213 / MSSA, cefoxitin Etest, MSSA Reference (ATCC 29213), read-out: MIC
  MIC: 4 µg/mL (≈ 9.36 µM)
S. aureus (MSSA); Staphylococcus aureus, ATCC 29213 / MSSA, cefoxitin, strain 156, MSSA ATCC 29213, read-out: MIC Etest
  MIC: 4 µg/mL (≈ 9.36 µM)
S. aureus (MSSA); Staphylococcus aureus, cefoxitin, MSSA (n = 15), read-out: MIC Etest
  MIC: 3 to 4 µg/mL (≈ 7.02 to 9.36 µM)
S. aureus (MSSA); cefoxitin Etest, strain 1, MSSA, Reference (ATCC 6538)
  MIC: 3 µg/mL (≈ 7.02 µM)
S. aureus (MSSA); cefoxitin Etest, strain 21, MSSA, Clinical EU
  MIC: 4 µg/mL (≈ 9.36 µM)
S. aureus (MSSA); cefoxitin Etest, strain 22, MSSA, Clinical DK
  MIC: 4 µg/mL (≈ 9.36 µM)
S. aureus (MSSA); cefoxitin Etest, strain 23, MSSA, Clinical DK
  MIC: 3 µg/mL (≈ 7.02 µM)
S. aureus (MSSA); cefoxitin Etest, strain 24, MSSA, Clinical DK
  MIC: 4 µg/mL (≈ 9.36 µM)
S. aureus (MSSA); cefoxitin Etest, strain 26, MSSA, Clinical DK
  MIC: 4 µg/mL (≈ 9.36 µM)
S. aureus (MSSA); cefoxitin Etest, strain 54, MSSA, Clinical EU
  MIC: 4 µg/mL (≈ 9.36 µM)
S. aureus (MSSA); cefoxitin Etest, strain 117, MSSA, Reference (ATCC 11632)
  MIC: 3 µg/mL (≈ 7.02 µM)
S. aureus (MSSA); cefoxitin Etest, strain 155, MSSA, Reference (ATCC 25923)
  MIC: 3 µg/mL (≈ 7.02 µM)
S. aureus (MSSA); cefoxitin Etest, strain 156, MSSA, Reference (ATCC 29213)
  MIC: 4 µg/mL (≈ 9.36 µM)
MR-CNS; strain 4, MR-CNS, S. epidermidis, Reference (ATCC 51625)
  MIC: 32 µg/mL (≈ 74.9 µM)
MR-CNS; strain 154, MR-CNS, S. saccharolyticus, Reference (ATCC 14953)
  MIC: ≧256
MR-CNS; strain 350, MR-CNS, S. epidermidis, Reference
  MIC: ≧256
MR-CNS; strain 351, MR-CNS, S. warneri, Reference DK
  MIC: 192 µg/mL (≈ 449 µM)
MR-CNS; strain 352, MR-CNS, S. epidermidis, Reference DK
  MIC: 256 µg/mL (≈ 599 µM)
MR-CNS; strain 353, MR-CNS, S. hominis, Reference DK
  MIC: 64 µg/mL (≈ 150 µM)
MR-CNS; strain 408, MR-CNS, Clinical DK
  MIC: ≧256
MR-CNS; strain 412, MR-CNS, Clinical DK
  MIC: ≧256
MR-CNS; strain 414, MR-CNS, Clinical DK
  MIC: 256 µg/mL (≈ 599 µM)
MS-CNS; cefoxitin Etest, strain 629, MS-CNS, S. epidermidis, Reference (ATCC 14990)
  MIC: 1.5 µg/mL (≈ 3.51 µM)
MS-CNS; cefoxitin, MS-CNS (n = 5), read-out: MIC Etest
  MIC: 1.5 µg/mL (≈ 3.51 µM)
